The results in this text go back to patent publication US9732115B2, “3-(4′-substituted)-benzyl-ether derivatives of pregnenolone” (INSERM (Institut National de la Sante et de la Recherche …, priority 2012, dated 2017).

For this series, the system named is CHO cell line. In words: In vitro test of metabolization in CHO cells (steroids in culture medium by GC/MS). The procedure:
In Vitro Test of Metabolization
In this example, CHO cell line was used. These cells derived from the ovary have all the enzymes needed to metabolize pregnenolone in downstream steroids.
The content in CHO culture medium of allopregnanolone (ALLO), epiallopregnanolone (EPIALLO), pregnenolone (PREG), DHEA, and testosterone (TESTO) was measured by GC/MS.
Pregnenolone derivatives having C3 substituted with benzyloxy were tested using in vitro test in CHO cells.
Results expressed as percentage changes from CHO cells treated with Pregnenolone or as pg/ml (0=concentrations below the detection limit).

Setting [1] is: CHO culture medium, Pregnenolone 1 μM, 48 hours, GC/MS.

Regarding `COc1ccc(CO[C@H]2CC[C@@]3(C)C(=CCC4C3CC[C@@]3(C)C4CC[C@]3(C)C(C)=O)C2)cc1` (stereo partly drawn) [Compound 68, 3β-(p-methoxy- benzyloxy)-17α- methyl- pregnenolone], the “metabolised in Pregnenolone (in words)” value (CHO cells, Table 2) is “not metabolised”.

As for `CC(=O)[C@H]1CC[C@H]2[C@@H]3CC=C4C[C@@H](O)CC[C@]4(C)[C@H]3CC[C@]12C` [Pregnenolone], where the note is “CHO cells, 1 μM, 48 hours”, the “Allopregnanolone and Epiallopregnanolone in the culture medium (in words)” value was “significant increase”. For the same molecule, under setting [1], the “ALLO (allopregnanolone) steroid levels” value is 3529.99 pg/mL, the DHEA steroid levels turned out to be 0.00 pg/mL, the “EPIALLO (epiallopregnanolone) steroid levels” value worked out at 16963.84 pg/mL and the “PREG (pregnenolone) steroid levels” value came to 11440.66 pg/mL. Further, the “TESTO (testosterone) steroid levels” value under setting [1] amounted to 0.00 pg/mL.
